Common to all, as to type: functional
Experiment [1] relates to Staphylococcus aureus. Nature of the experiment: Antibacterial activity against methicillin resistant Staphylococcus aureus ATCC 33591 assessed as bacterial growth inhibition measured after 16 to 18 hrs by serial dilution method. The following applies: time 16-18 hrs.
For experiment [2], the system named is Staphylococcus aureus. The experiment is described as follows: Antibacterial activity against vancomycin-intermediate methicillin resistant Staphylococcus aureus ATCC 700788 assessed as bacterial growth inhibition measured after 16 to 18 hrs by serial dilution method. The following applies: time 16-18 hrs.
Experiment [3] relates to Staphylococcus aureus. Nature of the experiment: Antibacterial activity against fluoroquinolone/methicillin resistant Staphylococcus aureus clinical isolate 19-27 assessed as bacterial growth inhibition measured after 16 to 18 hrs by serial dilution method. Particulars: time 16-18 hrs.
Experiment [4] deals with Staphylococcus aureus. The experiment is described as follows: Antibacterial activity against Staphylococcus aureus Newman assessed as bacterial growth inhibition measured after 16 to 18 hrs by serial dilution method. Particulars: time 16-18 hrs.
Experiment [5] relates to Staphylococcus aureus. The experiment is described as follows: Antibacterial activity against fluoroquinolone/methicillin resistant Staphylococcus aureus clinical isolate 19-25 assessed as bacterial growth inhibition measured after 16 to 18 hrs by serial dilution method. Particulars: time 16-18 hrs.
The test system of experiment [6] is Staphylococcus aureus. Nature of the experiment: Antibacterial activity against clinical isolate linezolid/methicillin resistant Staphylococcus aureus NRS 271 assessed as bacterial growth inhibition measured after 16 to 18 hrs by serial dilution method. The following applies: time 16-18 hrs.
Experiment [7] has as its system Staphylococcus aureus. The experiment is described as follows: Antibacterial activity against clinical isolate aminoglycosides/tetracycline/methicillin resistant Staphylococcus aureus NRS 1 assessed as bacterial growth inhibition measured after 16 to 18 hrs by serial dilution method. The following applies: time 16-18 hrs.
The subject of experiment [8] is Staphylococcus aureus. Nature of the experiment: Antibacterial activity against fluoroquinolone/methicillin resistant Staphylococcus aureus clinical isolate 19-26 assessed as bacterial growth inhibition measured after 16 to 18 hrs by serial dilution method. Particulars: time 16-18 hrs.
For experiment [9], the system named is Staphylococcus aureus. The experiment is described as follows: Antibacterial activity against clinical isolate oxacillin/tetracycline/methicillin resistant Staphylococcus aureus NRS 100 assessed as bacterial growth inhibition measured after 16 to 18 hrs by serial dilution method. The following applies: time 16-18 hrs.
Experiment [10] concerns Staphylococcus aureus. The experiment is described as follows: Antibacterial activity against vancomycin-intermediate methicillin resistant Staphylococcus aureus ATCC 700699 assessed as bacterial growth inhibition measured after 16 to 18 hrs by serial dilution method. The following applies: time 16-18 hrs.
Experiment [11] deals with Staphylococcus aureus. Nature of the experiment: Antibacterial activity against clinical isolate erythromycin/methicillin resistant Staphylococcus aureus NRS 70 assessed as bacterial growth inhibition measured after 16 to 18 hrs by serial dilution method. Particulars: time 16-18 hrs.
In experiment [12] the test system is Staphylococcus aureus. The experiment is described as follows: Antibacterial activity against methicillin resistant Staphylococcus aureus ATCC 43300 assessed as bacterial growth inhibition measured after 16 to 18 hrs by serial dilution method. The following applies: time 16-18 hrs.
Experiment [13] relates to Staphylococcus aureus. The experiment is described as follows: Antibacterial activity against clinical isolate gentamycin/methicillin resistant Staphylococcus aureus NRS 108 assessed as bacterial growth inhibition measured after 16 to 18 hrs by serial dilution method. Particulars: time 16-18 hrs.
Experiment [14] concerns Escherichia coli. Nature of the experiment: Antibacterial activity against Escherichia coli assessed as zone of inhibition at 250 ug/ml by agar well diffusion assay. The following applies: read-out: IZ. On the technique in general: A growth-free zone around the sample is the usual read-out of agar diffusion tests.
Experiment [15] deals with Pseudomonas aeruginosa. The experiment is described as follows: Antibacterial activity against Pseudomonas aeruginosa assessed as zone of inhibition at 250 ug/ml by agar well diffusion assay. Particulars: read-out: IZ.
Experiment [16] deals with Staphylococcus aureus. The experiment is described as follows: Antibacterial activity against Staphylococcus aureus assessed as zone of inhibition at 250 ug/ml by agar well diffusion assay. The following applies: read-out: IZ.
The test system of experiment [17] is Klebsiella pneumoniae. Nature of the experiment: Antibacterial activity against Klebsiella pneumoniae assessed as zone of inhibition at 250 ug/ml by agar well diffusion assay. The following applies: read-out: IZ.
The test system of another experiment is SiHa. Nature of the experiment: Growth inhibition of human SiHa cells measured after 48 hrs by SRB assay. Background: Sulforhodamine B stains cellular protein and so reports cell mass.
The subject of the next experiment is MDA-MB-231. Nature of the experiment: Growth inhibition of human MDA-MB-231 cells measured after 48 hrs by SRB assay.
Experiment [18] concerns Staphylococcus aureus. The experiment is described as follows: Antibacterial activity against Staphylococcus aureus clinical isolate assessed as zone of inhibition at 50 mg/ml by agar diffusion assay. The following applies: read-out: IZ.
Experiment [19] has as its system Escherichia coli. Nature of the experiment: Antibacterial activity against Escherichia coli ATCC 25922 assessed as zone of inhibition at 50 mg/ml by agar diffusion assay. Particulars: read-out: IZ.
Experiment [20] relates to Escherichia coli. Nature of the experiment: Antibacterial activity against Escherichia coli clinical isolate assessed as zone of inhibition at 50 mg/ml by agar diffusion assay. Particulars: read-out: IZ.
Experiment [21] concerns Staphylococcus aureus. The experiment is described as follows: Antibacterial activity against Staphylococcus aureus ATCC 25923 assessed as zone of inhibition at 50 mg/ml by agar diffusion assay. The following applies: read-out: IZ.
Experiment [22] deals with Staphylococcus aureus. Nature of the experiment: Antibacterial activity against Staphylococcus aureus assessed as bacterial growth inhibition by agar dilution assay.
In experiment [23] the test system is Pseudomonas aeruginosa. Nature of the experiment: Antibacterial activity against Pseudomonas aeruginosa ATCC 27853 assessed as bacterial growth inhibition by agar dilution assay.
Experiment [24] deals with Klebsiella pneumoniae. Nature of the experiment: Antibacterial activity against Klebsiella pneumoniae assessed as bacterial growth inhibition by agar dilution assay.
In experiment [25] the test system is Staphylococcus aureus. Nature of the experiment: Antibacterial activity against methicillin resistant Staphylococcus aureus assessed as bacterial growth inhibition by agar dilution assay.
The test system of experiment [26] is Staphylococcus aureus. The experiment is described as follows: Antibacterial activity against Staphylococcus aureus ATCC 25923 assessed as bacterial growth inhibition by agar dilution assay. In general terms: Agar dilution tests growth on a series of plates holding different concentrations.
The test system of experiment [27] is Staphylococcus aureus. The experiment is described as follows: Antibacterial activity against Staphylococcus aureus ATCC 29213 assessed as bacterial growth inhibition by agar dilution assay.
Another experiment deals with Acinetobacter baumannii. The experiment is described as follows: Antibacterial activity against Acinetobacter baumannii assessed as bacterial growth inhibition by agar dilution assay.
Experiment [28] concerns Escherichia coli. The experiment is described as follows: Antibacterial activity against Escherichia coli ATCC 25922 assessed as bacterial growth inhibition by agar dilution assay.
In another experiment the test system is Enterobacter cloacae. Nature of the experiment: Antibacterial activity against Enterobacter cloacae PTCC 1003 assessed as bacterial growth inhibition by agar dilution method.
The next experiment relates to Bacillus subtilis. The experiment is described as follows: Antibacterial activity against Bacillus subtilis PTCC 1023 assessed as bacterial growth inhibition by agar dilution method.
For experiment [29], the system named is Staphylococcus aureus. Nature of the experiment: Antibacterial activity against Staphylococcus aureus ATCC 6538p assessed as bacterial growth inhibition by agar dilution method.
In experiment [30] the test system is Klebsiella pneumoniae. Nature of the experiment: Antibacterial activity against Klebsiella pneumoniae ATCC 10031 assessed as bacterial growth inhibition by agar dilution method.
For experiment [31], the system named is Staphylococcus epidermidis. The experiment is described as follows: Antibacterial activity against Staphylococcus epidermidis ATCC 12228 assessed as bacterial growth inhibition by agar dilution method.
Experiment [32] relates to Escherichia coli. Nature of the experiment: Antibacterial activity against Escherichia coli ATCC 8739 assessed as bacterial growth inhibition by agar dilution method.
For experiment [33], the system named is Staphylococcus aureus. Nature of the experiment: Antibacterial activity against Staphylococcus aureus ATCC 25923 assessed as bacterial growth inhibition measured after 18 to 24 hrs by two fold microdilution assay. The following applies: time 18-24 hrs.
The subject of experiment [34] is Klebsiella pneumoniae. Nature of the experiment: Antibacterial activity against Klebsiella pneumoniae assessed as bacterial growth inhibition measured after 18 to 24 hrs by two fold microdilution assay. Particulars: time 18-24 hrs.
Experiment [35] relates to Escherichia coli. The experiment is described as follows: Antibacterial activity against Escherichia coli ATCC 35218 assessed as bacterial growth inhibition measured after 18 to 24 hrs by two fold microdilution assay. Particulars: ATCC35218, time 18-24 hrs.

The structures appear in SMILES notation. In brackets after ≈: the same amount, converted by molar mass. A value given as a limit tells only on which side of the number the result lay.

With `CN[C@H](CC(C)C)C(=O)N[C@H]1C(=O)N[C@@H](CC(N)=O)C(=O)N[C@H]2C(=O)N[C@H]3C(=O)N[C@H](C(=O)N[C@H](C(=O)O)c4cc(O)cc(O)c4-c4cc3ccc4O)[C@H](O)c3ccc(c(Cl)c3)Oc3cc2cc(c3O[C@@H]2O[C@H](CO)[C@@H](O)[C@H](O)[C@H]2O[C@H]2C[C@](C)(N)[C@H](O)[C@H](C)O2)Oc2ccc(cc2Cl)[C@H]1O` [VANCOMYCIN], the MIC with Staphylococcus aureus [1], in the experiment on Staphylococcus aureus [2], in the experiment with Staphylococcus aureus [3], with Staphylococcus aureus [4], in the experiment on Staphylococcus aureus [5] and in the experiment with Staphylococcus aureus [6] was 0.78 µg/mL (≈ 0.538 µM) throughout. In addition, the MIC in the experiment with Staphylococcus aureus [7], in the experiment on Staphylococcus aureus [8], in the experiment on Staphylococcus aureus [9], in the experiment with Staphylococcus aureus [10], in the experiment with Staphylococcus aureus [11] and in the experiment with Staphylococcus aureus [12] was 0.78 µg/mL (≈ 0.538 µM) each time. The MIC (commonly the lowest concentration found to suppress growth) in the experiment on Staphylococcus aureus [13] was found to be 0.78 µg/mL (≈ 0.538 µM).
Regarding `Cc1ncc([N+](=O)[O-])n1CC(C)OC(=O)c1cn(C2CC2)c2cc(N3CCNCC3)c(F)cc2c1=O` (configuration not stated), the MIC in the experiment on Staphylococcus aureus [2] was ≤ 0.17 µg/mL. For the same molecule, the zone of inhibition at 250 µg/mL with Escherichia coli [14], in the experiment on Pseudomonas aeruginosa [15], in the experiment with Staphylococcus aureus [16] and in the experiment with Klebsiella pneumoniae [17] was 25 mm each time.
`CC/C(=C(\c1ccccc1)c1ccc(OCCN(C)C)cc1)c1ccccc1` [TAMOXIFEN]: the values for the GI50 with SiHa and in the experiment with MDA-MB-231 were 120 nM and 240 nM, respectively.
As for `COC(=O)c1cn(C2CC2)c2cc(N3CCN(C(=O)c4nnn(-c5ccc(SC)cc5)c4N)CC3)c(F)cc2c1=O`, the zone of inhibition at 50000 µg/mL in the experiment on Staphylococcus aureus [18], in the experiment on Escherichia coli [19], in the experiment with Escherichia coli [20] and in the experiment on Staphylococcus aureus [21] was 26.3 mm in each case.
Take `CCOC(=O)c1cn(Cc2nc3ccccc3n2Cc2ccccc2F)c2cc(Cl)c(F)cc2c1=O`: the MIC in the experiment with Staphylococcus aureus [22], with Pseudomonas aeruginosa [23], in the experiment on Klebsiella pneumoniae [24], with Staphylococcus aureus [25], in the experiment with Staphylococcus aureus [26] and in the experiment with Staphylococcus aureus [27] was 1 µg/mL (≈ 1.97 µM) throughout. Moreover, the MIC in the experiment with Acinetobacter baumannii and in the experiment with Escherichia coli [28] was 1 µg/mL (≈ 1.97 µM) throughout.
In the case of `COc1cc(OC)nc(/N=N/N2CCN(c3cc4c(cc3F)c(=O)c(C(=O)C(C(C)=O)C(C)=O)cn4C3CC3)CC2)n1`, the minimal inhibitory concentration (MIC) (in the experiment on Enterobacter cloacae; in the experiment on Bacillus subtilis; with Staphylococcus aureus [29]; in the experiment on Klebsiella pneumoniae [30]; in experiment [31]; with Escherichia coli [32]) was 0.015 µg/mL (≈ 0.0259 µM) in each case.
As to `COC(=O)c1cn(C2CC2)c2cc(N3CCN(CC(=O)OC(C)Cn4c([N+](=O)[O-])cnc4C)CC3)c(F)cc2c1=O` (configuration not stated), the zone of inhibition at 250 µg/mL with Escherichia coli [14], in the experiment on Pseudomonas aeruginosa [15], in the experiment on Staphylococcus aureus [16] and in the experiment on Klebsiella pneumoniae [17] was 19 mm each time.
`CCn1cc(C(=O)O)c(=O)c2cc(F)c(N3CCN(Cn4nc(CN5CCN(c6ccc(F)cc6)CC5)n(-c5ccccc5)c4=O)CC3)cc21`: the MIC with Staphylococcus aureus [33], with Klebsiella pneumoniae [34] and in the experiment on Escherichia coli [35] was < 0.24 µg/mL in each case.
As for `Cc1ccc(Oc2ccnc(Nc3ccc4c(=O)c(C(=O)O)cn(C5CC5)c4c3)n2)cc1`, the MIC with Staphylococcus aureus [1], in the experiment with Staphylococcus aureus [3], with Staphylococcus aureus [4], in the experiment with Staphylococcus aureus [5], in the experiment with Staphylococcus aureus [6] and with Staphylococcus aureus [7] was ≤ 0.17 µg/mL throughout. The MIC in the experiment on Staphylococcus aureus [8], in the experiment with Staphylococcus aureus [9], with Staphylococcus aureus [10], in the experiment on Staphylococcus aureus [11], with Staphylococcus aureus [12] and in the experiment on Staphylococcus aureus [13] was ≤ 0.17 µg/mL in each case.

Source of the values: ChEMBL document CHEMBL5360532, “Current scenario of quinolone hybrids with potential antibacterial activity against ESKAPE pathogens” (Eur J Med Chem, 2023).
